From the NIST ThermoML archive (doi:10.1016/j.tca.2012.10.004)

Columns and labels:
[1] = relative permittivity at zero frequency (dimensionless); xn = mol fraction of the nth substance listed; conditions: 101 kPa, Liquid, Coaxial cylinder capacitor
[2] = refractive index (Na D-line) (dimensionless); xn = mol fraction of the nth substance listed; conditions: 101 kPa, Liquid, Standard Abbe refractometry

CN(CCO)CCO [N-methyldiethanolamine] + O=S1(=O)CCCC1
Conditions | refractive index, [2] | relative permittivity at zero frequency, [1]
293.15 K, x1 = 0.1001 | 1.48265 | 40.8
293.15 K, x1 = 0.2012 | 1.48037 | 38.3
293.15 K, x1 = 0.2999 | 1.47845 | 35.5
293.15 K, x1 = 0.4003 | 1.4766 | 33.5
293.15 K, x1 = 0.5005 | 1.47489 | 31.7
293.15 K, x1 = 0.6 | 1.47343 | 30.2
293.15 K, x1 = 0.7002 | 1.47207 | 28.4
293.15 K, x1 = 0.8011 | 1.47093 | 26.6
293.15 K, x1 = 0.8998 | 1.47017 | 24.6
293.15 K, x1 = 1 | 1.46935 | 22.9
298.15 K, x1 = 0.1001 | 1.48095 | 40.1
298.15 K, x1 = 0.2012 | 1.47872 | 37.6
298.15 K, x1 = 0.2999 | 1.47672 | 34.8
298.15 K, x1 = 0.4003 | 1.47488 | 32.8
298.15 K, x1 = 0.5005 | 1.47316 | 31
298.15 K, x1 = 0.6 | 1.47164 | 29.5
298.15 K, x1 = 0.7002 | 1.47023 | 27.7
298.15 K, x1 = 0.8011 | 1.469 | 26
298.15 K, x1 = 0.8998 | 1.46802 | 24.1
298.15 K, x1 = 1 | 1.46724 | 22.4
303.15 K, x1 = 0.1001 | 1.47886 | 39.4
303.15 K, x1 = 0.2012 | 1.4767 | 36.9
303.15 K, x1 = 0.2999 | 1.47473 | 34.1
303.15 K, x1 = 0.4003 | 1.47288 | 32.1
303.15 K, x1 = 0.5005 | 1.47124 | 30.3
303.15 K, x1 = 0.6 | 1.46976 | 28.8
303.15 K, x1 = 0.7002 | 1.46844 | 27
303.15 K, x1 = 0.8011 | 1.46717 | 25.3
303.15 K, x1 = 0.8998 | 1.46615 | 23.6
303.15 K, x1 = 1 | 1.46532 | 21.8
308.15 K, x1 = 0.1001 | 1.47712 | 38.7
308.15 K, x1 = 0.2012 | 1.47488 | 36.1
308.15 K, x1 = 0.2999 | 1.47281 | 33.4
308.15 K, x1 = 0.4003 | 1.47099 | 31.3
308.15 K, x1 = 0.5005 | 1.46931 | 29.5
308.15 K, x1 = 0.6 | 1.46777 | 28.1
308.15 K, x1 = 0.7002 | 1.46639 | 26.3
308.15 K, x1 = 0.8011 | 1.46513 | 24.6
308.15 K, x1 = 0.8998 | 1.46413 | 22.9
308.15 K, x1 = 1 | 1.4631 | 21.3
313.15 K, x1 = 0.1001 | 1.47549 | 38
313.15 K, x1 = 0.2012 | 1.47327 | 35.5
313.15 K, x1 = 0.2999 | 1.47109 | 32.7
313.15 K, x1 = 0.4003 | 1.46919 | 30.6
313.15 K, x1 = 0.5005 | 1.46741 | 28.7
313.15 K, x1 = 0.6 | 1.46584 | 27.4
313.15 K, x1 = 0.7002 | 1.46442 | 25.6
313.15 K, x1 = 0.8011 | 1.46301 | 24
313.15 K, x1 = 0.8998 | 1.46184 | 22.2
313.15 K, x1 = 1 | 1.46074 | 20.8
318.15 K, x1 = 0.1001 | 1.47376 | 37.4
318.15 K, x1 = 0.2012 | 1.47154 | 34.6
318.15 K, x1 = 0.2999 | 1.46941 | 32
318.15 K, x1 = 0.4003 | 1.46751 | 29.9
318.15 K, x1 = 0.5005 | 1.46573 | 28
318.15 K, x1 = 0.6 | 1.46414 | 26.7
318.15 K, x1 = 0.7002 | 1.46267 | 24.9
318.15 K, x1 = 0.8011 | 1.46127 | 23.3
318.15 K, x1 = 0.8998 | 1.46005 | 21.7
318.15 K, x1 = 1 | 1.45892 | 20.3
323.15 K, x1 = 0.1001 | 1.47203 | 36.7
323.15 K, x1 = 0.2012 | 1.46976 | 33.9
323.15 K, x1 = 0.2999 | 1.46769 | 31.3
323.15 K, x1 = 0.4003 | 1.46581 | 29.2
323.15 K, x1 = 0.5005 | 1.46403 | 27.3
323.15 K, x1 = 0.6 | 1.46242 | 26
323.15 K, x1 = 0.7002 | 1.46091 | 24.2
323.15 K, x1 = 0.8011 | 1.45949 | 22.7
323.15 K, x1 = 0.8998 | 1.45821 | 21.2
323.15 K, x1 = 1 | 1.45708 | 19.8
328.15 K, x1 = 0.1001 | 1.47021 | 36.2
328.15 K, x1 = 0.2012 | 1.46788 | 33.2
328.15 K, x1 = 0.2999 | 1.46596 | 30.6
328.15 K, x1 = 0.4003 | 1.46404 | 28.5
328.15 K, x1 = 0.5005 | 1.46226 | 26.5
328.15 K, x1 = 0.6 | 1.46061 | 25.2
328.15 K, x1 = 0.7002 | 1.45905 | 23.5
328.15 K, x1 = 0.8011 | 1.45761 | 22.1
328.15 K, x1 = 0.8998 | 1.45636 | 20.5
328.15 K, x1 = 1 | 1.45513 | 19.3
